{"source": "patent US7285569B2", "about": "“Tricycles, their manufacture and use as pharmaceutical agents” (Hoff Hoffmann-La Roche Inc., priority 2004, dated 2007)", "key": {"[1]": {"molecular_target": "T1, Aurora A (Homo sapiens, UniProt O14965)", "T1 construct": "C-terminally Histidine4 (His4)-tagged Aurora A full-length protein", "T1 sequence (O14965 1-403)": "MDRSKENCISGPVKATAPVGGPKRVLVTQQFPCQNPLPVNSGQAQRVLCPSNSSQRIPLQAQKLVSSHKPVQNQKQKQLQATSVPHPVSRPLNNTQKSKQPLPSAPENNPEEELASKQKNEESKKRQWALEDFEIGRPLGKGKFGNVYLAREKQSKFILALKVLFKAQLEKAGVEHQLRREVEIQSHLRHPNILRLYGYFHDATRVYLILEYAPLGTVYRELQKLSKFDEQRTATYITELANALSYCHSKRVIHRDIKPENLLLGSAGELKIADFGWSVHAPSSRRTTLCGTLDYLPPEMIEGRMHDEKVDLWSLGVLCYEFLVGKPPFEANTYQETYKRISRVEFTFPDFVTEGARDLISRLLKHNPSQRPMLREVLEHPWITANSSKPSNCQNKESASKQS", "test": "IC50 determination for inhibitors of Aurora A (96 MTP-ELISA)", "assay_type": "biochemical", "settings": "His4-tagged full-length Aurora A 250 ng/ml, PKB-GSK2 200 nM, ATP 4 μM, 90 min at room temperature; read-out: IC50 Aurora A kinase inhibition", "description": "IC50 Determination for Inhibitors of Aurora A\nAurora A is a serine threonine kinase involved in spindle assembly and chromosome segregation.\nThe assay is a typically ELISA-type assay where biotinylated substrate (PKB-GSK2) is phosphorylated. Phosphorylation is detected by peroxidase (POD) labelled polyclonal antibody (PAK<M-Ig>S-IgG-POD) and phosphopeptide monoclonal antibody (Mab) (MAK<P-GSK>M-27E5-IgG). The assay is validated for IC50-determination.\nAurora A-His-4 C-terminally Histidine4 (His4)-tagged Aurora A full-length protein, stock solution 0.7 mg/ml, final conc.: 250 ng/ml\nPKB-GSK2 biotinylated peptide derived from human GSK3-alpha sequence (Biotin-SGRARTSSFAEPGG-CONH2), stock solution 600 μM, final conc.: 200 nM\nATP Adenosine-5′-triphosphate 1 mM, diluted in kinase buffer, (Roche Diagnostics GmbH, Cat. No.: 127531-001,), final conc.: 4 μM\nKinase buffer 50 mM TRIS, 10 mM MgCl2, 1 mM DTT, 0.1% Tween 20, pH 7.8\nThis assay is performed in 96-well format for IC50 determination with 5 samples (each with 8 concentrations by twofold testing), 100 μl incubation volume and the following plate layout:\nStep/Action 1. Sample preparation: add 24 μl per well samples (descending sequence) diluted in kinase buffer to assay plate (final conc. for DMSO 1%). 2. Add directly 16 μl Aurora-A-his-4 diluted in kinase buffer to assay plate. 3. Add directly 40 μl per well PKB-GSK2/ATP mixture to assay plate, (final conc.: Aurora A=250 ng/ml, GSK2=200 nM, ATP=4 μM). Negative control: without ATP. 4. Incubate assay plate for exactly 90 min at room temperature. 5. Stop reaction by adding 20 μl EDTA in all wells. 6. Wash assay plate 3× with 200 μl washing buffer per well. 7. Add 100 μl MAK<P-GSK>M27E5-IgG (1:10000) and PAK<M-Ig>S-IgG-POD (1:6000) dissolved in 3% BSA/PBS-T to assay plate per well. 8. Incubate assay plate for 60 min at room temperature. 9. Wash assay plate 3× with 200 μl washing buffer per well 10. Add 100 μl ABTS solution to assay plate per well, incubate for approx. 4 min at RT on MTP shaker. 11. Measure absorption at 405/492 nm. 12. Calculate % inhibition as: (1−(Esample−ENC)/(EPC−ENC))×100 13. Calculate IC50 using a non-linear curve fit (XLfit software (ID Business Solution Ltd., Guilford, Surrey, UK))"}, "[2]": {"tested_on": "HCT 116 cells", "test": "CellTiter-Glo assay in HCT 116 cells (antiproliferative activity)", "assay_type": "cell-based", "settings": "HCT 116 human colon carcinoma cells, 5 days (120 h) incubation, CellTiter-Glo luminescence", "description": "Antiproliferative Activity\nCellTiter-Glo™ Assay in HCT 116 Cells\nThe CellTiter-Glo™ Luminescent Cell Viability Assay (Promega) is a homogeneous method of determining the number of viable cells in culture based on quantitation of the ATP present, which signals the presence of metabolically active cells.\nHCT 116 cells (human colon carcinoma, ATCC-No. CCI-247) were cultivated in RPMI 1640 medium with GlutaMAX™ I (Invitrogen, Cat-No. 61870-010), 2.5% Fetal Calf Serum (FCS, Sigma Cat-No. F4135 (FBS)); 100 Units/ml penicillin/100 μg/ml streptomycin (=Pen/Strep from Invitrogen Cat. No. 15140). For the assay the cells were seeded in 384 well plates, 1000 cells per well, in the same medium. The next day the test compounds were added in various concentrations ranging from 30 μM to 0.0015 μM (10 concentrations, 1:3 diluted). After 5 days the CellTiter-Glo™ assay was done according to the instructions of the manufacturer (CellTiter-Glo™ Luminescent Cell Viability Assay, from Promega). In brief: the cell-plate was equilibrated to room temperature for approximately 30 minutes and than the CellTiter-Glo™ reagent was added. The contents were carefully mixed for 15 minutes to induce cell lysis. After 45 minutes the luminescent signal was measured in Victor 2, (scanning multiwell spectrophotometer, Wallac).\nMedium: RPMI 1640 with GlutaMAX™ I (Invitrogen, Cat-Nr. 61870), 5% FCS (Sigma Cat.-No. F4135), Pen/Strep (Invitrogen, Cat No. 15140).\nHCT116 (ATCC-No. CCI-247): 1000 cells in 60 μl per well of 384 well plate (Greiner 781098, μClear-plate white)\nAfter seeding incubate plates 24 h at 37° C., 5% CO2\n2nd. Day: Induction (Treatment with Compounds, 10 Concentrations):\nIn order to achieve a final concentration of 30 μM as highest concentration 3.5 μl of 10 mM compound stock solution were added directly to 163 μl media. Then step e) of the dilution procedure described below, was followed.\nIn order to achieve the second highest to the lowest concentrations, a serial dilution with dilution steps of 1:3 was followed according to the procedure (a-e) as described here below: • for the second highest concentration add 10 μl of 10 mM stock solution of compound to 20 μl dimethylsulfoxide (DMSO) • dilute 8×1:3 (always 10 μl to 20 μl DMSO) in this DMSO dilution row (results in 9 wells with concentrations from 3333.3 μM to 0.51 μM) • dilute each concentration 1:47.6 (3.5 μl compound dilution to 163 μl media) • add 10 μl of every concentration to 60 μl media in the cell plate resulting in final concentration of DMSO: 0.3% in every well and resulting in 10 final concentration of compounds ranging from 30 μM to 0.0015 μM. • Each compound is tested in triplicate. • Incubate 120 h (5 days) at 37° C., 5% CO2 Analysis:\nAdd 30 μl CellTiter-Glo™ Reagent (prepared from CellTiter-Glo™ Buffer and CellTiter-Glo™ Substrate (lyophilized) purchased from Promega) per well, • shake 15 minutes at room temperature • incubate further 45 minutes at room temperature without shaking Measurement:\nVictor 2 scanning multiwell spectrophotometer (Wallac), Luminescence mode (0.5 sec/read, 477 nm)\nDetermine IC50 using a non-linear curve fit (XLfit software (ID Business Solution Ltd., Guilford, Surrey, UK))"}}, "data": [{"smiles": "CC(C)c1cc(-c2nc3cc4c(cc3[nH]2)NC(=O)C42CCCC2)[nH]n1", "note": "[Example 28, 2-(5-Isopropyl-2H-pyrazol-3-yl)-spiro-5,7-dihydro[cyclopentane-1′,7-imidazo[4,5-f]indol]-6(3H)-one]", "values": [{"measurement": "IC50", "setting": "[1]", "value": "500 to 1500", "unit": "nM"}, {"measurement": "IC50", "setting": "[2]", "value": "100 to 10000", "unit": "nM"}]}, {"smiles": "Cc1cc(-c2nc3cc4c(cc3[nH]2)N(C)C(=O)C4(C)C)n[nH]1", "note": "[Example 31, 5,7,7-Trimethyl-2-(5-methyl-1H-pyrazol-3-yl)-5,7-dihydro-3H-imidazo[4,5-f]indol-6-one]", "values": [{"measurement": "IC50", "setting": "[1]", "value": "10 to 500", "unit": "nM"}, {"measurement": "IC50", "setting": "[2]", "value": "100 to 10000", "unit": "nM"}]}, {"smiles": "Cc1cc(-c2nc3cc4c(cc3[nH]2)C(C)(C)C(=O)N4C(C)C)[nH]n1", "note": "[Example 34, 5-Isopropyl-7,7-dimethyl-2-(5-methyl-2H-pyrazol-3-yl)-5,7-dihydro-1H-imidazo[4,5-f]indol-6-one]", "values": [{"measurement": "IC50", "setting": "[1]", "value": "10 to 500", "unit": "nM"}, {"measurement": "IC50", "setting": "[2]", "value": "100 to 10000", "unit": "nM"}]}, {"smiles": "CCCc1cc(-c2nc3cc4c(cc3[nH]2)C(C)(C)C(=O)N4C(C)C)[nH]n1", "note": "[Example 35, 5-Isopropyl-7,7-dimethyl-2-(5-propyl-2H-pyrazol-3-yl)-5,7-dihydro-1H-imidazo[4,5-f]indol-6-one]", "values": [{"measurement": "IC50", "setting": "[1]", "value": "10 to 500", "unit": "nM"}, {"measurement": "IC50", "setting": "[2]", "value": "100 to 10000", "unit": "nM"}]}, {"smiles": "CCCN1C(=O)C(C)(C)c2cc3[nH]c(-c4cc(C)n[nH]4)nc3cc21", "note": "[Example 36, 7,7-Dimethyl-2-(5-methyl-2H-pyrazol-3-yl)-5-propyl-5,7-dihydro-1H-imidazo[4,5-f]indol-6-one]", "values": [{"measurement": "IC50", "setting": "[1]", "value": "10 to 500", "unit": "nM"}, {"measurement": "IC50", "setting": "[2]", "value": "100 to 10000", "unit": "nM"}]}, {"smiles": "CCCc1cc(-c2nc3cc4c(cc3[nH]2)N(CCC)C(=O)C4(C)C)[nH]n1", "note": "[Example 37, 7,7-Dimethyl-5-propyl-2-(5-propyl-2H-pyrazol-3-yl)-5,7-dihydro-3H-imidazo[4,5-f]indol-6-one]", "values": [{"measurement": "IC50", "setting": "[1]", "value": "10 to 500", "unit": "nM"}, {"measurement": "IC50", "setting": "[2]", "value": "100 to 10000", "unit": "nM"}]}, {"smiles": "CCCN1C(=O)C(C)(C)c2cc3[nH]c(-c4cc(C(F)(F)F)n[nH]4)nc3cc21", "note": "[Example 41, 7,7-Dimethyl-5-propyl-2-(5-trifluoromethyl-2H-pyrazol-3-yl)-5,7-dihydro-1H-imidazo[4,5-f]indol-6-one]", "values": [{"measurement": "IC50", "setting": "[1]", "value": "500 to 1500", "unit": "nM"}, {"measurement": "IC50", "setting": "[2]", "value": "100 to 10000", "unit": "nM"}]}]}
